Reference: patent publication US12006313B1, “7-(4-((5-(benzylideneamino)-2-thioxo-1,3,4-thiadiazol-3(2H)-yl)methyl)piperazin-1-yl)-1-cyclopropyl-6-fluoro-4-oxo-1,4-dihydroquinoline-3-carboxylic acid as an anti-inflammatory and anticancer compound” (KING FAISAL UNIVERSITY, priority 2023, dated 2024)

How the values were obtained:
[1] = system: human prostate cancer cells (PC3); experiment: Assessment of cytotoxicity by SRB assay, PC3; assay type: cell-based; details: 72 h
Procedure: (§1) The human prostate cancer cells (PC3) and human osteosarcoma cells (MG-63) were obtained from Nawah Scientific Inc. (Mokatam, Cairo, Egypt) and cultured in DMEM (Dulbecco's modified eagle's medium), Gibco, USA, supplemented with fetal bovine serum (FBS) at a concentration of 10% and 100 U/mL of penicillin and streptomycin (PS). The Cells were incubated at 37° C. in a humidified environment that contained 5% CO2.
(§2) Cells were seeded in 96-well plates as aliquots of 100 μL cell suspension and incubated in a complete media for 24 h. afterward, cells were treated with N′-(1-naphthoyloxy)-2-(benzo[d]thiazol-2-yl)acetimidamide at diverse concentrations ranging from 0.01 μM to 100 μM for 72 h. Then, cells were fixed at 4° C. for one hour with 150 μL of 10% trichloroacetic acid (TCA). After washing the cells five times with distilled water, 70 μL of sulforhodamine (SRB) solution (0.4% w/v) was added and incubated for 10 min at room temperature in a dark place. […] Then, 150 μL of Tris pH 10.5 (10 mM) was added, and the absorbance was measured at 540 nm using a BMG LABTECH®-FLUOstar Omega microplate reader (Ortenberg, Germany). Half maximal inhibitory concentrations (IC50) values were calculated for each experiment using GraphPad Prism 6 software. […]
(§3) The inhibition was calculated using the following equation: Inhibition %=100-Average Viability

Bovine Serum Albumin = Bovine Serum Albumin (Bos taurus, UniProt P02769); experiment: Bovine Serum Albumin assay (BSA), inhibition of protein denaturation; assay type: biochemical; details: 0.4% w/v BSA, pH 6.4, 72° C. for 10 minutes, turbidity at 660 nm
Chain of Bovine Serum Albumin (P02769 25-607): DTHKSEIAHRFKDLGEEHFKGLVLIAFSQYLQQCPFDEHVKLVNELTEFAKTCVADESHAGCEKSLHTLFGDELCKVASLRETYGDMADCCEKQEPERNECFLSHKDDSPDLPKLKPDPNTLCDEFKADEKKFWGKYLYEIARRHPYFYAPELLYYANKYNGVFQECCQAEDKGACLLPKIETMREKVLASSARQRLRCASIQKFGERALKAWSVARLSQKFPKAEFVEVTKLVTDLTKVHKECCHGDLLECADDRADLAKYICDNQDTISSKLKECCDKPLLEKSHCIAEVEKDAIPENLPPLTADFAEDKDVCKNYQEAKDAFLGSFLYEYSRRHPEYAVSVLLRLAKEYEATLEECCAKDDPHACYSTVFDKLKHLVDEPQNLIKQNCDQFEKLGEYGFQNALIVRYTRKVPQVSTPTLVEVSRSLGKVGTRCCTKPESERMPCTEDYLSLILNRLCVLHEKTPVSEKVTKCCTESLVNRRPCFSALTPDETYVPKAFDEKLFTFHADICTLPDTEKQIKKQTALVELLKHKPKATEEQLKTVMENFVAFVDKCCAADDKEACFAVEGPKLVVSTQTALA
Procedure: In vitro-inflammatory activities of the tested samples were determined using a modified method of the BSA assay reported by Williams et al. BSA solution (0.4%, w/v) was prepared in Tris Buffered Saline. The pH was adjusted to 6.4 with glacial acetic acid. Different dilutions of 20, 40, 60, 80, and 100 μg/mL of the stock solutions were added to test tubes containing 1 mL of 0.4%, w/v BSA buffer solution. Both negative (solvent) and positive (aspirin) controls were assayed in a similar manner. The solutions were then heated in a water bath at 72° C. for 10 minutes and cooled for 20 minutes under laboratory conditions. The turbidity of the solutions (level of protein precipitation) was measured at 660 nm in Spectrophotometer (V-770 UV-Visible/NIR Spectrophotometer).
The percentage inhibition of precipitation (protein denaturation) was determined relative to the negative control using the following equation:
[formula] % Anti-Denaturation Activity=% Inhibition of Protein Denaturation=% Anti-inflammatory Activity

[2] = system: human osteosarcoma cells (MG-63); experiment: Assessment of cytotoxicity by SRB assay, MG-63; assay type: cell-based; details: MG-63 cells, 72 h
Procedure: as §1, §2, §3

- in vitro anti-inflammatory activity (inhibition of protein denaturation) (Bovine Serum Albumin): considerable anti-inflammatory effect
- melting point: 241 to 243 °C
SMILES: O=C(O)c1cn(C2CC2)c2cc(N3CCN(Cn4nc(/N=C/c5ccccc5)sc4=S)CC3)c(F)cc2c1=O [7-(4-((5-(benzylideneamino)-2-thioxo-1,3,4-thiadiazol-3(2H)-yl)methyl)piperazin-1-yl)-1-cyclopropyl-6-fluoro-4-oxo-1,4-dihydroquinoline-3-carboxylic acid]
- antiproliferative activity [1]: excellent antiproliferative activities
- antiproliferative activity [2]: excellent antiproliferative activities
